# Laboratory results reported in patent publication US9657307B2, “Herbicide resistance gene and use thereof” (HANGZHOU RUIFENG BIOTECHNOLOGY LIMITED INC., priority 2010, dated 2017).
# Tests used:
# [1] = test system: transformation line N-Z1-At6; experiment: Herbicide and herbicide mixture resistance of transformation line N-Z1-At6; type: in vivo, Arabidopsis thaliana; conditions: sprayed during the 4th-6th leaf stage
# From the text: The resistance capability of N-Z1-At6 to other herbicides was further tested. Atrazine (90% water dispersible granule, Syngenta), Dicamba (48% aqueous formulation, Syngenta), flumiclorac-pentyl (10% emulsifiable concentrate, Sumitomo Chemical Corporation), bentazon, penoxsulam, bensulfuron and tribenuron are respectively sprayed during the 4th-6th leaf stage.
# The transformation line N-Z1-At6 was further tested for the resistance to herbicide mixture.
# Cynodon dactylon = experiment: Herbicide spray resistance determination of Cynodon dactylon; type: in vivo; conditions: observed after 10 days
# From the text: (§1) Cynodon dactylon is a common weed as well as a turfgrass.
# [2] = test system: control weeds including green bristlegrass, wild oats, Amaranthus retroflexus, humulus, purslane, Monochoria vaginalis, piemarker and nutgrass galingale herb; experiment: Herbicide spray on control weeds; type: in vivo; conditions: observed after 10 days
# From the text: as §1
# [3] = test system: transgenic rice strains obtained by pCam1300-N-Z1 vector transformation; experiment: Herbicide resistance of transgenic rice, pCam1300-N-Z1 vector; type: in vivo; conditions: after 10 days; for transgenic strains with slow growth / transgenic strains without any observable growth inhibition: of 10 strains; for death rate of transgenic strains: seedlings about 10 cm, 10 strains
# From the text: The method for obtaining transgenic rice was implemented using existing technology (Lu Xiongbin, Gong zuxun, 1998, Life Science, 10: 125-131; Liu fan et al., 2003, Molecular Plant Breeding, 1:108-115). Ripe and plump “Xiushui 134” seeds were selected and deshelled, and the calli were induced and produced which would be used as transformation material. Agrobacterium containing target gene vectors pCam1300-N-Z1 and pCam1300-N-Z2 was taken and streaked onto a plate, and single colony was selected and inoculated to prepare Agrobacterium for transformation. The calli to be transformed were placed into Agrobacterium liquid (containing acetosyringone) with proper concentration, allowing the Agrobacterium to be conjugated to the surface of the calli, and then the calli were transferred to a coculture medium and cocultured for 2-3 days. The transformed calli were rinsed with aseptic water and transferred to a selective medium containing appropriate hygromycin, and cultured for screening for two months (subcultured one time during the period). The calli after being screened with good viability were transferred to a pre-differentiation medium and cultured for about 20 days, and then the pre-differentiated calli were transferred to a differential medium and irradiated with light for 14 hours for differentiation and sprouting. After 2-3 weeks, the regenerated plants having resistance were transferred to a rooting medium containing nicosulfuron (0.1 mg/L) for strengthening the seedling and growing roots, and then the regenerated plants were rinsed to remove agar and transferred into a greenhouse to be used as identification materials.
# (§2) 10 different transgenic rice strains obtained by pCam1300-N-Z1 vector transformation and non-transgenic strains of the same variety “XiuShui 134” were selected and planted in a greenhouse (at a temperature of 15° C.-25° C.), and nicosulfuron (Yu Nongle, zhejiang Gold-Ox pesticides LTD) was sprayed at 6 mg/square meter when the seedlings have a height of about 10 cm.
# (§3) 10 different transgenic rice strains obtained by pCam1300-N-Z1 vector transformation and non-transgenic strains of the same variety “XiuShui 134” were selected and planted in a greenhouse (at a temperature of 15° C.-25° C.), and mesotrione (10% mesotrione suspension, Syngenta) was sprayed at 15 mg/square meter when the seedlings have a height of about 10 cm.
# [4] = test system: non-transgenic strains of the same variety "XiuShui 134"; experiment: Herbicide spray on non-transgenic rice; type: in vivo; conditions: after 10 days
# Experimental: as §2, §3
# 10 different transgenic rice strains obtained by pCam1300-N-Z2 vector transformation and non-transgenic strains of the same variety “XiuShui 134” were selected and planted in the greenhouse (at a temperature of 15° C.-25° C.), and nicosulfuron was sprayed at 6 mg/square meter when the seedlings have a height of about 10 cm.
# 10 different transgenic rice strains obtained by pCam1300-N-Z2 vector transformation and non-transgenic strains of the same variety “XiuShui 134” were selected and planted in the greenhouse (at a temperature of 15° C.-25° C.), and mesotrione was sprayed at 15 mg/square meter when the seedlings have a height of about 10 cm.
# [5] = test system: transgenic rice strains obtained by pCam1300-N-Z2 vector transformation; experiment: Herbicide resistance of transgenic rice, pCam1300-N-Z2 vector; type: in vivo; conditions: after 10 days, 10 strains
# From the text: The method for obtaining transgenic rice was implemented using existing technology (Lu Xiongbin, Gong zuxun, 1998, Life Science, 10: 125-131; Liu fan et al., 2003, Molecular Plant Breeding, 1:108-115). Ripe and plump “Xiushui 134” seeds were selected and deshelled, and the calli were induced and produced which would be used as transformation material. Agrobacterium containing target gene vectors pCam1300-N-Z1 and pCam1300-N-Z2 was taken and streaked onto a plate, and single colony was selected and inoculated to prepare Agrobacterium for transformation. The calli to be transformed were placed into Agrobacterium liquid (containing acetosyringone) with proper concentration, allowing the Agrobacterium to be conjugated to the surface of the calli, and then the calli were transferred to a coculture medium and cocultured for 2-3 days. The transformed calli were rinsed with aseptic water and transferred to a selective medium containing appropriate hygromycin, and cultured for screening for two months (subcultured one time during the period). The calli after being screened with good viability were transferred to a pre-differentiation medium and cultured for about 20 days, and then the pre-differentiated calli were transferred to a differential medium and irradiated with light for 14 hours for differentiation and sprouting. […]
# [6] = test system: transgenic Arabidopsis thaliana transformation lines (vector pCambia1300-35S/G10-35S/N-Z1); experiment: Herbicide resistance of transgenic Arabidopsis thaliana, pCambia1300-35S/G10-35S/N-Z1; type: in vivo; conditions: 10 days after spraying
# From the text: A total of 35 individual transformation lines were obtained using vector pCambia1300-35S/G10-35S/N-Z1. The T1 generation seedlings (obtained after the germination of T0 generation seeds) were sprayed with glyphosate diluted at 1:200 (41% aqueous solution of glyphosate isopropylamine salt, Xin'an chemical company) to remove the isolated plants without introduction of glyphosate-resistant gene. The survived plants were subjected to herbicide resistance test after growing to 4th-6th leaf stages.
# (§4) Nicosulfuron resistance test: 10 plants for each line were sprayed with nicosulfuron (the dose is equal to 6 mg/square meter, the effective spraying concentration was 80 mg/L, and the product was Yu Nongle, Zhejiang Gold-Ox pesticides LTD). Non-transgenic recipient parent Arabidopsis thaliana was used as negative control. Their nicosulfuron resistance levels were evaluated 10 days after spraying nicosulfuron. […] All of the non-transgenic recipient parent Arabidopsis thaliana died.
# (§5) Mesotrione resistance test: 10 plants for each line were sprayed with mesotrione (the dose is equal to 15 mg/square meter, the effective spraying concentration was 200 mg/L, and the product was 10% mesotrione suspension, Syngenta). Non-transgenic recipient parent Arabidopsis thaliana was used as negative control. Their mesotrione resistant levels were evaluated 10 days after spraying mesotrione. […] All of the non-transgenic recipient parent Arabidopsis thaliana died.
# (§6) 2,4-D resistance test: 10 plants for each line were sprayed with 2,4-D (the dose was equal to 150 mg/square meter, the spraying concentration was 1.4 g/L, and the product was soluble powder of […], Haiyan boda fine chemical Co., Ltd). Non-transgenic recipient parent Arabidopsis thaliana was used as negative control. […] All of the non-transgenic recipient parent Arabidopsis thaliana died.
# [7] = test system: Non-transgenic recipient parent Arabidopsis thaliana; experiment: Herbicide spray on non-transgenic Arabidopsis thaliana; type: in vivo; conditions: 10 days after spraying
# Experimental: as §4, §5, §6
# [8] = test system: untransformed Arabidopsis thaliana seeds; experiment: Germination and growth on glyphosate medium; type: in vivo; conditions: growth medium containing 0.5 mM glyphosate
# Experimental: The seeds obtained from Arabidopsis thaliana infected by Agrobacterium were allowed to germinate and grow in Arabidopsis thaliana growth medium containing 0.5 mM glyphosate. […] However, the seeds that introduced with T-DNA can grow and develop, followed by flowering and harvesting seeds. A total of 35 individual glyphosate-resistant seedlings (T0 generation) were obtained, and the seeds thereof were harvested.
# [9] = mesotrione 15 mg/square meter (200 mg/L)
# [10] = nicosulfuron 6 mg/square meter (80 mg/L), of 35 lines
smiles,measurement,setting,value
CCNc1nc(Cl)nc(NC(C)C)n1 [Atrazine],resistance level of N-Z1-At6 compared with non-transgenic parental plants,[1],obviously improved
COc1nc(C)nc(N(C)C(=O)NS(=O)(=O)c2ccccc2C(=O)O)n1 [tribenuron],resistance level of N-Z1-At6 compared with non-transgenic parental plants,[1],obviously improved
CCCCCOC(=O)COc1cc(N2C(=O)C3=C(CCCC3)C2=O)c(F)cc1Cl [flumiclorac-pentyl],resistance level of N-Z1-At6 compared with non-transgenic parental plants,[1],obviously improved
COc1c(Cl)ccc(Cl)c1C(=O)O [Dicamba],resistance level of N-Z1-At6 compared with non-transgenic parental plants,[1],obviously improved
COc1cnc(OC)n2nc(NS(=O)(=O)c3c(OCC(F)F)cccc3C(F)(F)F)nc12 [penoxsulam],resistance level of N-Z1-At6 compared with non-transgenic parental plants,[1],obviously improved
CS(=O)(=O)c1ccc(C(=O)C2C(=O)CCCC2=O)c([N+](=O)[O-])c1 [mesotrione],death of Cynodon dactylon,Cynodon dactylon; mesotrione 1000 mg/L sprayed,no death
same,death of control weeds,[2]; mesotrione 1000 mg/L sprayed,died due to the occurrence of whitening
same,transgenic strains with slow growth,[3]; mesotrione 15 mg/square meter,7 strains
same,transgenic strains without any observable growth inhibition,[3]; mesotrione 15 mg/square meter,3 strains
same,death rate of transgenic strains,[3]; mesotrione 15 mg/square meter,0%
same,death of non-transgenic strains,[4]; mesotrione 15 mg/square meter,died
same,death of transgenic strains (N-Z2),[5]; mesotrione 15 mg/square meter,died
same,killed,[6]; [9],11 plants
same,"whitening at the early stage, most recovered later",[6]; [9],18 plants
same,transformation lines with no obvious herbicide damage,"[6]; mesotrione 15 mg/square meter (200 mg/L), of 35 lines",6 lines
same,death of non-transgenic recipient parent,[7]; [9],died
COc1cc(OC)nc(NC(=O)NS(=O)(=O)Cc2ccccc2C(=O)O)n1 [bensulfuron],resistance level of N-Z1-At6 compared with non-transgenic parental plants,[1],obviously improved
O=C(O)CNCP(=O)(O)O [glyphosate],growth of untransformed seeds after germination,[8],yellowed and died
COc1cc(OC)nc(NC(=O)NS(=O)(=O)c2ncccc2C(=O)N(C)C)n1 [nicosulfuron],death of Cynodon dactylon,Cynodon dactylon; nicosulfuron 400 mg/L sprayed,no death
same,death of control weeds,[2]; nicosulfuron 400 mg/L sprayed,killed
same,transgenic strains with slow growth,[3]; nicosulfuron 6 mg/square meter,2 strains
same,transgenic strains without any observable growth inhibition,[3]; nicosulfuron 6 mg/square meter,8 strains
same,death rate of transgenic strains,[3]; nicosulfuron 6 mg/square meter,0%
same,death of non-transgenic strains,[4]; nicosulfuron 6 mg/square meter,died
same,death of transgenic strains (N-Z2),[5]; nicosulfuron 6 mg/square meter,died
same,lines killed,[6]; [10],6 lines
same,lines with different degrees of growth inhibition,[6]; [10],8 lines
same,transformation lines with no obvious herbicide damage,[6]; [10],21 lines
same,death of non-transgenic recipient parent,[7]; nicosulfuron 6 mg/square meter (80 mg/L),died
CC(C)N1C(=O)c2ccccc2NS1(=O)=O [bentazon],resistance level of N-Z1-At6 compared with non-transgenic parental plants,[1],obviously improved
